Measurements taken from patent US8604042B2, “Bi-aryl meta-pyrimidine inhibitors of kinases” (TargeGen, Inc., priority 2005, dated 2013).
Where a name gives a salt, the structure may show the parent alone.

molecular target: T1, recombinant JAK2 (Homo sapiens, UniProt O60674); experiment: IC50 value determinations for Jak2 kinase, luminescence-based kinase assay (Kinase-Glo); assay type: biochemical; settings: Table 1
T1 construct: purchased Upstate Cell Signaling Solutions
T1 sequence (O60674 808-1132 limits assumed): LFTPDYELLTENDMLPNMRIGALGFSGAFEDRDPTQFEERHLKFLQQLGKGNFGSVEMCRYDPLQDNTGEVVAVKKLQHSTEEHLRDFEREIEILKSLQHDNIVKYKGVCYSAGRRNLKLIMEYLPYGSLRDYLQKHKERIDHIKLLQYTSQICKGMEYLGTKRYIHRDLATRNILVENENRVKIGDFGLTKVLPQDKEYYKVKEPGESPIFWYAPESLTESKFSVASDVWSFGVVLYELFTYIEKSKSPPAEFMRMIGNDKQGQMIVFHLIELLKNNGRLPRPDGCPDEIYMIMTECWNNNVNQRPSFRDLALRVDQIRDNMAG

SMILES | IC50
Cc1cnc(Nc2cccc(N3CCN(CCO)CC3)c2)nc1Nc1cccc(S(=O)(=O)NC(C)(C)C)c1 [N-tert-Butyl-3-(2-{3-[4-(2-hydroxy-ethyl)-piperazin-1-yl]-phenylamino}-[5-methyl-pyrimidin-4-ylamino]-benzenesulfonamide Hydrochloride] | 40.5 nM
Cc1cnc(Nc2ccc(N3CCN(CCO)CC3)cc2)nc1Nc1cccc(S(=O)(=O)NC(C)(C)C)c1 [N-tert-Butyl-3-(2-{4-[4-(2-hydroxy-ethyl)-piperazin-1-yl]-phenylamino)-[5-methyl-pyrimidin-4-ylamino]-benzenesulfonamide Hydrochloride] | 7.09 nM
Cc1cnc(Nc2cccc(CN3CCOCC3)c2)nc1Nc1cccc(S(=O)(=O)NC(C)(C)C)c1 [N-tert-Butyl-3-(5-methyl-2-(3-morpholin-4-ylmethyl-phenylamino)-pyrimidin-4-ylamino]-benzenesulfonamide] | 7.06 nM
Cc1cnc(Nc2ccc(OC3CCNCC3)cc2)nc1Nc1cccc(S(=O)(=O)NC(C)(C)C)c1 [N-tert-Butyl-3-(5-methyl-2-[4-(piperidin-4-yloxy)-phenylamino]-pyrimidin-4-ylamino}-benzenesulfonamide] | 7.3 nM
Cc1cnc(Nc2cccc(N3CCNCC3)c2)nc1Nc1cccc(S(=O)(=O)NC(C)(C)C)c1 [N-tert-Butyl-3-[5-methyl-2-(3-piperazin-1-yl-phenylamino)-pyrimidin-4-ylamino]-benzenesulfonamide Hydrochloride] | 18 nM
Cc1cnc(Nc2ccc(N3CCOCC3)cc2)nc1Nc1cccc(S(=O)(=O)NC(C)(C)C)c1 [N-tert-Butyl-3-[5-methyl-2-(4-morpholin-4-yl-phenylamino)-pyrimidin-4-ylamino]-benzenesulfonamide] | 12.1 nM
Cc1cnc(Nc2ccc(CN3CCOCC3)cc2)nc1Nc1cccc(S(=O)(=O)NC(C)(C)C)c1 [N-tert-Butyl-3-[5-methyl-2-(4-morpholin-4-ylmethyl-phenylamino)-pyrimidin-4-ylamino]-benzenesulfonamide] | 12.5 nM
Cc1cnc(Nc2ccc(N3CCNCC3)cc2)nc1Nc1cccc(S(=O)(=O)NC(C)(C)C)c1 [N-tert-Butyl-3-[5-methyl-2-(4-piperazin-1-yl-phenylamino)-pyrimidin-4-ylamino]-benzenesulfonamide Hydrochloride] | 7.59 nM
Cc1cnc(Nc2ccc(N3CCNCC3)nc2)nc1Nc1cccc(S(=O)(=O)NC(C)(C)C)c1 [N-tert-Butyl-3-[5-methyl-2-(6-piperazin-1-yl-pyridin-3-ylamino)-pyrimidin-4-ylamino]-benzenesulfonamide] | 10 nM
Cc1cnc(Nc2ccc(OCCO)cc2)nc1Nc1cccc(S(=O)(=O)NC(C)(C)C)c1 [N-tert-Butyl-3-{2-[4-(2-hydroxy-ethoxy)-phenylamino]-5-methyl-pyrimidin-4-ylamino)-benzenesulfonamide] | 20.3 nM
Cc1cnc(Nc2cccc(-c3nnn[nH]3)c2)nc1Nc1cccc(S(=O)(=O)NC(C)(C)C)c1 [N-tert-Butyl-3-{5-methyl-2-[3-(1H-tetrazol-5-yl)-phenylamino]-pyrimidin-4-ylamino}-benzenesulfonamide] | 55.9 nM
Cc1cnc(Nc2cccc(S(=O)(=O)N3CCCCC3)c2)nc1Nc1cccc(S(=O)(=O)NC(C)(C)C)c1 [N-tert-Butyl-3-{5-methyl-2-[3-(piperidine-1-sulfonyl)-phenylamino]-pyrimidin-4-ylamino}-benzenesulfonamide] | 316 nM
Cc1cnc(Nc2ccc(C(C)N3CCOCC3)cc2)nc1Nc1cccc(S(=O)(=O)NC(C)(C)C)c1 (centres unmarked) [N-tert-Butyl-3-{5-methyl-2-[4-(1-morpholin-4-yl-ethyl)-phenylamino]-pyrimidin-4-ylamino}-benzenesulfonamide] | 29.7 nM
Cc1cnc(Nc2ccc(-c3nnn[nH]3)cc2)nc1Nc1cccc(S(=O)(=O)NC(C)(C)C)c1 [N-tert-Butyl-3-{5-methyl-2-[4-(1H-tetrazol-5-yl)-phenylamino]-pyrimidin-4-ylamino}-benzenesulfonamide] | 96.7 nM
Cc1cnc(Nc2ccc(N3CCN(C)CC3)cc2)nc1Nc1cccc(C(=O)NC(C)(C)C)c1 [N-tert-Butyl-3-{5-methyl-2-[4-(4-methyl-piperazin-1-yl)-phenylamino]-pyrimidin-4-ylamino}-benzamide] | 890 nM
Cc1cnc(Nc2ccc(C[N+]3([O-])CCOCC3)cc2)nc1Nc1cccc(S(=O)(=O)NC(C)(C)C)c1 [N-tert-Butyl-3-{5-methyl-2-[4-(4-oxy-morpholin-4-ylmethyl)-phenylamino]-pyrimidin-4-ylamino}-benzenesulfonamide] | 48.6 nM

The remaining lines, values ahead:

IC50 | SMILES
12.3 nM | Cc1cnc(Nc2ccc(-n3ccnc3)cc2)nc1Nc1cccc(S(=O)(=O)NC(C)(C)C)c1 [N-tert-Butyl-3-[2-(4-imidazol-1-yl-phenylamino)-5-methyl-pyrimidin-4-ylamino]-benzenesulfonamide]
8.42 nM | Cc1cnc(Nc2ccc(Cn3ccnc3)cc2)nc1Nc1cccc(S(=O)(=O)NC(C)(C)C)c1 [N-tert-Butyl-3-[2-(4-imidazol-1-ylmethyl-phenylamino)-5-methyl-pyrimidin-4-ylamino]-benzenesulfonamide]
41.4 nM | Cc1cnc(Nc2ccc(-n3cncn3)cc2)nc1Nc1cccc(S(=O)(=O)NC(C)(C)C)c1 [N-tert-Butyl-3-[5-methyl-2-(4-[1,2,4]triazol-1-yl-phenylamino)-pyrimidin-4-ylamino]-benzenesulfonamide]
35.4 nM | Cc1cnc(Nc2ccc(Cn3cncn3)cc2)nc1Nc1cccc(S(=O)(=O)NC(C)(C)C)c1 [N-tert-Butyl-3-[5-methyl-2-(4-[1,2,4]triazol-1-ylmethyl-phenylamino)-pyrimidin-4-ylamino]-benzenesulfonamide]
19 nM | Cc1cnc(Nc2ccc(-n3cccn3)cc2)nc1Nc1cccc(S(=O)(=O)NC(C)(C)C)c1 [N-tert-Butyl-3-[5-methyl-2-(4-pyrazol-1-yl-phenylamino)-pyrimidin-4-ylamino]-benzenesulfonamide]
18.6 nM | Cc1cnc(Nc2ccc(Cn3cccn3)cc2)nc1Nc1cccc(S(=O)(=O)NC(C)(C)C)c1 [N-tert-Butyl-3-[5-methyl-2-(4-pyrazol-1-ylmethyl-phenylamino)-pyrimidin-4-ylamino]-benzenesulfonamide]
80.7 nM | Cc1cnc(Nc2ccc(Cc3ccncc3)cc2)nc1Nc1cccc(S(=O)(=O)NC(C)(C)C)c1 [N-tert-Butyl-3-[5-methyl-2-(4-pyridin-4-ylmethyl-phenylamino)-pyrimidin-4-ylamino]-benzenesulfonamide]
34.3 nM | Cc1cnc(Nc2ccc(-n3ccnc3C)cc2)nc1Nc1cccc(S(=O)(=O)NC(C)(C)C)c1 [N-tert-Butyl-3-{5-methyl-2-[4-(2-methyl-imidazol-1-yl)-phenylamino]-pyrimidin-4-ylamino}-benzenesulfonamide]
21.9 nM | Cc1cnc(Nc2ccc(Cn3ccnc3C)cc2)nc1Nc1cccc(S(=O)(=O)NC(C)(C)C)c1 [N-tert-Butyl-3-{5-methyl-2-[4-(2-methyl-imidazol-1-ylmethyl)-phenylamino]-pyrimidin-4-ylamino}-benzenesulfonamide]
41.7 nM | Cc1cn(-c2ccc(Nc3ncc(C)c(Nc4cccc(S(=O)(=O)NC(C)(C)C)c4)n3)cc2)cn1 [N-tert-Butyl-3-{5-methyl-2-[4-(4-methyl-imidazol-1-yl)-phenylamino]-pyrimidin-4-ylamino}-benzenesulfonamide]
